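Values below derive from 48-hour exposures of cells grown in 96-well plates, with endpoints linearly interpolated between the two concentrations bracketing the appropriate inhibition level. GI50: concentration for 50% inhibition of growth. At the TGI there is no net growth.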
What was measured:
Experiment in all cases: DTP human tumour cell line panel, 48 h
A549 NSCLC = system: A549 NSCLC
ACHN renal = system: ACHN renal
COLO 205 colon = system: COLO 205 colon
EKVX NSCLC = system: EKVX NSCLC
HCT-15 colon = system: HCT-15 colon
HOP-62 NSCLC = system: HOP-62 NSCLC
NCI-H226 lung = system: NCI-H226 lung
SF-295 CNS = system: SF-295 CNS
SW-620 colon = system: SW-620 colon
UACC-62 melanoma = system: UACC-62 melanoma

Row | SMILES | TGI (A549 NSCLC) [µM] | TGI (ACHN renal) [µM] | TGI (COLO 205 colon) [µM] | TGI (EKVX NSCLC) [µM] | TGI (HCT-15 colon) [µM] | TGI (HOP-62 NSCLC) [µM] | TGI (NCI-H226 lung) [µM] | TGI (SF-295 CNS) [µM] | TGI (SW-620 colon) [µM] | TGI (UACC-62 melanoma) [µM] | GI50 (A549 NSCLC) [µM] | GI50 (ACHN renal) [µM] | GI50 (COLO 205 colon) [µM] | GI50 (EKVX NSCLC) [µM] | GI50 (HCT-15 colon) [µM] | GI50 (HOP-62 NSCLC) [µM] | GI50 (NCI-H226 lung) [µM] | GI50 (SF-295 CNS) [µM] | GI50 (SW-620 colon) [µM] | GI50 (UACC-62 melanoma) [µM]
1 | COc1cc(Br)c(C=Nc2cccc3ccc(OS(=O)(=O)c4cccc([N+](=O)[O-])c4)cc23)cc1OC | > 100 | > 100 | > 100 | > 100 | > 100 | > 100 | 84.1 | 60.4 | > 100 | > 100 |  |  |  |  |  |  |  |  |  | 
2 | Nc1nc(CCC(=O)Nc2cccc(C(F)(F)F)c2)cc(-c2ccc3ccccc3c2)n1 | > 100 | > 100 | > 100 | > 100 | > 100 | > 100 | > 100 | > 100 | > 100 | > 100 |  |  |  |  |  |  |  |  |  | 
3 | Cc1ccc(S(=O)(=O)N=Nc2c(O)[nH]c3c(Cl)cc(Cl)cc23)cc1 | > 100 | > 100 | > 100 | > 100 | > 100 | > 100 | > 100 | > 100 | > 100 | > 100 |  |  |  |  |  |  |  |  |  | 
4 | CCN1CSC(=S)N(CC)C1 | > 100 | > 100 | > 100 | > 100 | > 100 | 71.1 | > 100 | > 100 | > 100 | > 100 |  |  |  |  |  |  |  |  |  | 
5 | CCOC(=O)C(=O)Nc1c(C(C)C)cccc1C(C)C | > 100 | > 100 | > 100 | > 100 | > 100 | > 100 | > 100 | > 100 | > 100 | > 100 |  |  |  |  |  |  |  |  |  | 
6 | COc1ccc(CN2c3ccccc3CCc3ccccc32)cc1F | > 100 | > 100 | 1.39 | > 100 | > 100 | > 100 | > 100 | > 100 | > 100 | > 100 | 0.732 | 0.604 | 0.335 | 1.55 | 0.428 | 0.529 | 2.43 | 0.333 | 0.386 | 0.804
7 | C=C=C(C(=O)OC)S(=O)c1ccc([N+](=O)[O-])cc1[N+](=O)[O-] (stereo not given) | > 100 | > 68.5 | 52.7 | > 100 | 45.3 | > 82.5 | > 100 | > 100 | 36.3 | > 71.4 |  |  |  |  |  |  |  |  |  | 
8 | O=C1NC2(CN3CCC2CC3)C(=O)N1CN(Cc1ccccc1)c1ccccc1 (stereo not given) | > 100 | > 100 | > 100 | > 100 | > 100 | > 100 | > 100 | > 100 | > 100 | > 100 |  |  |  |  |  |  |  |  |  | 
9 | C[C-](O)O.O/C(=C\[C-](O)c1ccccc1)c1ccccc1.O/C(=C\[C-](O)c1ccccc1)c1ccccc1.[Nd+3] (stereo not given) | 48.9 | > 100 | 36.3 | 55 | 20.1 | 15.7 | 7.93 | 19.4 | > 100 | 45.3 | 18.2 | 12 | 14.7 | 8.09 | 4.96 | 3.1 | 1.24 | 0.372 | 6.94 | 6.56
10 | NC(=O)c1ccc(C2C3=C(CCCC3=O)OC3=C2C(=O)c2ccccc2C3=O)cc1 (stereo not given) | 4.66 | 2.41 | 1.41 | 2.83 | 3.37 | 2.72 | 3.96 | 3.18 | 1.72 | 0.52 | 2.28 | 1.14 | 0.351 | 0.687 | 1.4 | 1.35 | 1.89 | 1.53 | 0.383 | 0.217

From PubChem BioAssay (NCI)
